# According to patent US9994547B2, “Heteroarylamide inhibitors of TBK1” (Takeda Pharmaceutical Company Limited, priority 2014, dated 2018):
# Molecular target: Full length human TBK1 (Homo sapiens (Human), UniProt Q9UHD2)
# Assay: Inhibition of TBK1 Enzyme (Example A)
# Format: biochemical
# Conditions: -log(IC50), IC50 molar; 3 nM TBK1, 25 μM ATP, 60 min RT
# Summary of the method: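 Full-length N-His human TBK1 from Sf9 baculovirus was tested with 11-point 2.5-fold dilutions (1% DMSO) in Hepes pH 7.4, MgCl2, EDTA, Brij, DTT. After 60 min RT and EDTA quench, microfluidic conversion was fitted and reported as pIC50.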
# Full length human TBK1, sequence (Q9UHD2 whole entry): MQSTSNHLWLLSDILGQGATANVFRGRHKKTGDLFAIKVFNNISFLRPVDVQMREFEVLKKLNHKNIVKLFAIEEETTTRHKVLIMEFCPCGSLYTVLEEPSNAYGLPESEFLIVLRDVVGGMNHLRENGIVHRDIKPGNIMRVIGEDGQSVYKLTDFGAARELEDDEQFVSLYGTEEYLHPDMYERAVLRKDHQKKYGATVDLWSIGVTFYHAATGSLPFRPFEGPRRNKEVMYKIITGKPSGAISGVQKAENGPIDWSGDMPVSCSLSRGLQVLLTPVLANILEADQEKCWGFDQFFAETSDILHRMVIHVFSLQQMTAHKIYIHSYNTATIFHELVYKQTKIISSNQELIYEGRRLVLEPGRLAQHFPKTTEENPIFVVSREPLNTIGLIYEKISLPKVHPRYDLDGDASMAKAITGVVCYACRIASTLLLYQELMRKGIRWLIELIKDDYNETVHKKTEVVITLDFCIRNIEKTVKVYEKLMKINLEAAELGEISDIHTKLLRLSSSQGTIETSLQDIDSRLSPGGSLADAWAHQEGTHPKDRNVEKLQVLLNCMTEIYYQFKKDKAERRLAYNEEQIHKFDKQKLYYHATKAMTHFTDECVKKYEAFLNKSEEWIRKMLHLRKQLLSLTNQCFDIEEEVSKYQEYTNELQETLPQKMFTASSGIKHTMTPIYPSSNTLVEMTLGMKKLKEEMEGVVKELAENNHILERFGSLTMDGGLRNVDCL
row,SMILES,TBK1 Inhibition (pIC50)
1,"CC[C@H](Nc1cc(-c2cnc(NC(=O)C3CC3)cn2)cnc1C#N)C(=O)N(C)CC#N [Example 51, (S)-N-(5-(6-cyano-5-((1-((cyanomethyl)(methyl)amino)-1-oxobutan-2-yl)amino)pyridin-3-yl)pyrazin-2-yl)cyclopropanecarboxamide]",7.4
2,"COCC(Nc1cc(-c2cnc(NC(=O)C3CC3)cn2)cnc1C#N)C(=O)N(C)C (stereo not drawn) [Example 42, N-(5-(6-cyano-5-((1-(dimethylamino)-3-methoxy-1-oxopropan-2-yl)amino)pyridin-3-yl)pyrazin-2-yl)cyclopropanecarboxamide]",6.8
3,"C[C@@H](Nc1cc(-c2cnc(NC(=O)C3CC3)cn2)cnc1C#N)C(=O)N(C)CC(F)F [Example 83, (R)-N-(5-(6-cyano-5-((1-((2,2-difluoroethyl)(methyl)amino)-1-oxopropan-2-yl)amino)pyridin-3-yl)pyrazin-2-yl)cyclopropanecarboxamide]",7.0
4,"C[C@H](Nc1cc(-c2cnc(NC(=O)C3CC3)cn2)cnc1C#N)C(=O)N(C)[C@H](C)C#N [Example 88, N-(5-(6-cyano-5-(((S)-1-(((R)-1-cyanoethyl)(methyl)amino)-1-oxopropan-2-yl)amino)pyridin-3-yl)pyrazin-2-yl)cyclopropanecarboxamide]",7.6
5,"CC(=O)N1CCN(C(=O)CNc2cc(-c3cnc(NC(=O)C4CC4)cn3)cnc2C#N)CC1 [Example 99, N-(5-(5-((2-(4-acetylpiperazin-1-yl)-2-oxoethyl)amino)-6-cyanopyridin-3-yl)pyrazin-2-yl)cyclopropanecarboxamide]",6.0
6,"C[C@H](Nc1cc(-c2cnc(NC(=O)C3CC3)cn2)cnc1C#N)C(=O)N1CCO[C@@H]1C(F)(F)F [Example 60, N-(5-(6-cyano-5-((S)-1-oxo-1-((R)-2-(trifluoromethyl)oxazolidin-3-yl)propan-2-ylamino)pyridin-3-yl)pyrazin-2-yl)cyclopropanecarboxamide]",7.4
7,"N#Cc1ccc(-c2cnc(NC(=O)C3CC3)cn2)cc1NCC(=O)N1CC(F)(F)C1 [Example 24, N-(5-(4-cyano-3-((2-(3,3-difluoroazetidin-1-yl)-2-oxoethyl)amino)phenyl)pyrazin-2-yl)cyclopropanecarboxamide]",6.8
8,"C[C@@H](O)[C@H](Nc1cc(-c2cnc(NC(=O)C3CC3)cn2)cnc1C#N)C(=O)N(C)C [Example 32, N-(5-(6-cyano-5-(((2S,3R)-1-(dimethylamino)-3-hydroxy-1-oxobutan-2-yl)amino)pyridin-3-yl)pyrazin-2-yl)cyclopropanecarboxamide]",6.8
9,"CN(C)C(=O)C(CC(F)F)Nc1cc(-c2cnc(NC(=O)C3CC3)cn2)ccc1C#N (stereo not drawn) [Example 8, N-(5-(4-cyano-3-((1-(dimethylamino)-4,4-difluoro-1-oxobutan-2-yl)amino)phenyl)pyrazin-2-yl)cyclopropanecarboxamide]",8.1
10,"CC(O)CN(CC(F)(F)F)C(=O)CNc1cc(-c2cnc(NC(=O)C3CC3)cn2)cnc1C#N (stereo not drawn) [Example 110, N-(5-(6-cyano-5-((2-((2-hydroxypropyl)(2,2,2-trifluoroethyl)amino)-2-oxoethyl)amino)pyridin-3-yl)pyrazin-2-yl)cyclopropanecarboxamide]",7.5
11,"CN(CCC#N)C(=O)CNc1cc(-c2cnc(NC(=O)C3CC3)cn2)cnc1C#N [Example 65, N-(5-(6-cyano-5-((2-((2-cyanoethyl)(methyl)amino)-2-oxoethyl)amino)pyridin-3-yl)pyrazin-2-yl)cyclopropanecarboxamide]",6.9

# Same assay, conditions: -log(IC50), IC50 molar; 3 nM TBK1, 25 μM ATP, 60 min RT; read-out: TBK1 Inhibition (pIC50) (converted)
row,SMILES,IC50 [nM]
1,"CC[C@H](Nc1cc(-c2cnc(NC(=O)C3CC(C)(O)C3)cn2)cnc1C#N)C(=O)N(C)C (stereo partly drawn) [Example 147, (S)-N-(5-(6-cyano-5-((1-(dimethylamino)-1-oxobutan-2-yl)amino)pyridin-3-yl)pyrazin-2-yl)-3-hydroxy-3-methylcyclobutanecarboxamide]",398
